Data on 2 compounds can be found in patent US8785388B2, “TAT-BH3 methods for treating arthritis” (Saint Louis University, priority 2007, dated 2014).

Square brackets hold non-standard residues; d marks the D form. Peptide text beside a SMILES is read from it. Orn = NCCC[C@H](N)C(=O)O

For data set [1], the system named is cells that express high levels of Mcl-1. The following applies: literature statement; cited from earlier work.
Another data set relates to platelets. The following applies: literature statement; cited from earlier work.
Data set [2] deals with K/B×N serum transfer-induced arthritis. The data set is described as follows: Histopathological scoring of ankle sections (H&E, safranin O/methyl green). It is filed as in vivo, mice. As to conditions: saline vs TAT-inactive BH3. On the procedure: (§1) Paraffin embedded ankle or liver sections were stained with hematoxylin and eosin (H&E), Safranin O and methyl green. Histopathological scoring was performed and ankle sections were evaluated by examining at least 3 sections/ankle and 3 fields/section at 400× magnification. H&E ankle sections were scored on a 0-5 scale for inflammation, with 0=normal, 1=minimal infiltration, 2=mild infiltration, 3=moderate infiltration, […], mad 5=severe infiltration. Bone erosion was scored on a 0-5 scale by viewing H&E ankle sections, with 0=no or normal bone resorption, 1=small areas of resorption, 2=more numerous areas of resorption, 3=obvious resorption, 4=full thickness defects in the bone without distortion of the profile, 5=full thickness defects in the bone with distortion of the profile. H&E ankle stained sections were scored on a 0-5 scale for pannus formation, with 0=no pannus formation, 1=minimal pannus formation, 2=mild pannus formation, 3=moderate pannus formation, 4=marked pannus formation, and 5=severe pannus formation. H&E and Safranin 0 and methyl green sections were scored on a 0-5 scale for cartilage damage, with 0=no damage, 1-2=superficial cartilage destruction, 3-4=cartilage destruction to middle zone, 5=cartilage destruction to tide mark. Polymorphonuclear (PMN) leukocyte infiltration: 0=no PMNs, 1=rare scattered PMNs, 2=more frequent scattered PMNs, 3=small clusters of PMNs, 4=larger clusters of PMNs, mad 5=sheets of PMNs (abscess). Histopathological scoring was conducted on an Olympus BX40 microscope (1000×). Photographs were taken on a Nikon microscope equipped with the Nikon digital camera DMX 1200.
To accurately assess the degree of inflammation and destruction of cartilage and bone, ankle sections were examined using a histopathological scoring system on hematoxylin and eosin (H& E) or safranin O-methyl green stained ankle sections.

The test system is the same in data set [3]. The data set is described as follows: K/B×N serum transfer-induced arthritis, ankle circumference (joint swelling). Format: in vivo, mice. The text has this: The seven-week-old progeny from homozygous KRN TCR transgenic mice (C57BL/6 background) crossed with non-obese diabetes (NOD) mice (K/B×N) were euthanized, peripheral blood was isolated, and serum were collected and pooled. One hundred and fifty microliters of K/B×N serum were intraperitoneally injected on each flank of 6-week old wt mice.
(§2) At each time point and prior to euthanasia, the degree of arthritis as indicated by joint swelling was quantitated by measuring two perpendicular diameters of the ankles using a caliper (Lange Caliper: Cambridge Scientific Industries, Cambridge Mass.). Joint circumference was calculated using the geometric formula of ellipse circumference (2πX √(a^2+b^2)/2). Following euthanasia, serum was isolated from peripheral blood by cardiac stick and ankle joints were removed. One of the ankle joints was fixed in 10% neutral buffered formalin for 24 hours, decalcified in EDTA-decalcification buffer for two weeks, embedded in paraffin, and sectioned. The other ankle joint was placed in liquid nitrogen, grounded into a fine powder by mortal and pestle, digested in protein lysis buffer ([…], 0.5% NP-40, 50 mM Tris, and 2 mM EDTA) in the presence of phosphatase and protease inhibitors, and homogenized on ice for 20 seconds. To examine any toxicity due to systemic delivery of TAT-Bim peptides, alkaline phosphatase (ALP), […] (AST), alanine aminotransferase (ALT), and blood urea nitrogen levels were measured.
Therefore, peptides to the BH3 domain of Bim were used that are fused to polycationic peptide derived from HIV-1 TAT. These peptides have shown to activate Bak and Bax, suppress Bcl-2 and Mcl-1, induce mitochondrial permeability, and release mitochondrial cytochrome c. Mice were intraperitoneally injected with K/B×N serum to induce the effector phase of inflammatory arthritis.

Another data set concerns peripheral blood cells. The data set is described as follows: Peripheral blood cell counts (flow cytometry, hematology analyzer). It is filed as in vivo, mice. The following applies: peripheral blood, mean ± standard error. As to the method: Peripheral blood and bone marrow were isolated from mice following euthanasia. Total leukocyte numbers were determined using an automated hematology analyzer ABX Pentra 60 (Diamond Diagnostics, Inc, Holliston, Mass.). The red blood cells in peripheral blood were lysed and the remaining cells were fixed with BD FACS lysing solution (BD Biosciences, Pharmingen) following incubation with antibodies. Bone marrow cells were isolated by flushing Dulbecco's Modified Eagle Medium (DMEM) (Gibco, Grand Island, N.Y.) through the tibias and red blood cells were lysed with BD PharM Lyse (BD Biosciences, Pharmingen) prior to incubation with antibodies. Cells with incubated with Fc Block (BD Biosciences, Pharmingen) then stained with fluorochrome conjugated antibodies to CD45, CD11b, Gr-1, CD62L, Ly-6C, Ly-6G, CD31 (BD Biosciences, Pharmingen) or isotype control antibodies for 30 minutes. Cells were acquired on a BD LSRII (BD Biosciences, Pharmingen) using Diva Software at the Saint Louis University Core Flow Cytometry Facility. All analysis was performed using FlowJo software (Tree Star Inc.).
Peripheral blood was isolated by cardiac sticks. Cells were blocked for 10 minutes with Fc block and then stained with anti-CD45, anti-CD19, anti-CD3, anti-CD4, anti-CDS, anti-CD11b, anti-Gr-1, and anti-CD62L antibodies for 30 minutes. Platelets and RBCs were determined on an automated hematology analyzer ABX Pentra 60. Following incubation with antibodies red blood cells were lysed and cells were fixed with Becton Dickenson FACS lysing solution.
(In flow cytometry, cells or beads pass a laser one at a time.)

Data set [4] in a line: Toxicity: serum ALP, AST, ALT, blood urea nitrogen and liver histology in arthritic mice. Format: in vivo. The following applies: liver sections of arthritic mice. As to the method:
as §2, §1

Data set [5] concerns IL-1β, TNFα, MCP-1, KC, MMP-3. The data set is described as follows: ELISA of pro-inflammatory molecules in ankle extracts. Format: in vivo, mouse. Set-up: IL-1β / TNFα / MCP-1 / KC / MMP-3: unit not given here. As to conditions: ankle joints, seven days post-serum transfer; mean ± standard error. On the procedure:
as §2
For detection of mouse IL-1β, TNFα, MCP-1, KC, or MMP-3 in ankle extracts, sandwich ELISAs were performed according to the manufacturer's instructions (R & D Systems, Minneapolis, Minn.). The sensitivity for all cytokines was 15.6 pg/mL for IL-1β and KC, 7.813 pg/mL for TNFα and MCP-1, and 0.312 ng/mL for MMP3. ELISAs were quantitated by absorbance at 450 nm on a microplate reader (BioRad, Hercules, Calif.). Data obtained using ELISA on ankle extracts were normalized by the total protein concentration (μg/μL) for each individual ankle extract.
Mice were euthanized at seven days post-serum transfer. Ankle joints from each mouse were isolated, snap frozen, grounded into a fine powder, lysed, and examined for IL-1β, TNFα, MCP-1, KC, and MMP-3 production using an ELISA. Data are shown as μg/μL per joint. Values represent the mean±standard error, which were compared by Student's t-test.
Background: An ELISA detects its analyte on a solid surface through an enzyme-linked reagent.

For a further data set, the system named is IL-1β, TNFα, MCP-1, KC. The data set is described as follows: Circulating cytokine levels in serum. The following applies: between saline, TAT-inactive BH3 and TAT-BH3 groups. It is filed as in vivo, mice. On the procedure: as §2
TAT-BH3 peptides treatment reduces the numbers of myeloid cells in arthritic joints. […] To this end, the numbers of polymorphonuclear cell and macrophages in saline and BH3 peptide arthritic mice were quantified. […]

For the compound `CN(C)CC[C@H](CSc1ccccc1)Nc1ccc(S(=O)(=O)NC(=O)c2ccc(N3CCN(Cc4ccccc4-c4ccc(Cl)cc4)CC3)cc2)cc1[N+](=O)[O-]` [ABT-737], the “effect on cells that express high levels of Mcl-1” value in data set [1] was “no effect”. Also, the “effect on platelet numbers” value in the data set on platelets is reported as “dramatic effect”.
For `CC[C@H](C)[C@H](NC(=O)[C@H](CCCNC(=N)N)NC(=O)[C@H](CCCNC(=N)N)NC(=O)[C@H](C)NC(=O)[C@H](CCC(=O)O)NC(=O)[C@H](CCC(N)=O)NC(=O)[C@H](C)NC(=O)[C@@H](NC(=O)[C@H](Cc1c[nH]c2ccccc12)NC(=O)[C@@H](NC(=O)[C@H](CCC(=O)O)NC(=O)[C@H](CCCNC(=N)N)NC(=O)[C@H](CCCNC(=N)N)NC(=O)[C@H](CCCNC(=N)N)NC(=O)[C@H](CCCN)NC(=O)[C@H](CCCNC(=N)N)NC(=O)[C@H](CCCNC(=N)N)NC(=O)[C@H](CCCCN)NC(=O)[C@H](CCCCN)NC(=O)[C@H](CCCNC(=N)N)NC(C)=O)[C@@H](C)CC)[C@@H](C)CC)C(=O)NCC(=O)N[C@@H](C)C(=O)N[C@@H](CCC(=O)O)C(=O)N[C@@H](Cc1ccccc1)C(=O)N[C@@H](CC(N)=O)C(=O)N[C@@H](C)C(=O)N[C@@H](Cc1ccc(O)cc1)C(=O)N[C@@H](Cc1ccc(O)cc1)C(=O)N[C@@H](C)C(=O)N[C@@H](CCCNC(=N)N)C(=O)O` [reference compound] (Ac-RKKRR[Orn]RRREIWIAQEARRIGAEFNAYYAR-OH), the “difference in histological scores versus saline” value in data set [2] is given as “no statistical difference”. In addition, in data set [3] (day 2 after K/B×N serum, 2 mg/kg i.p.), the “change in ankle circumference” value came to 1.6 mm. Also, in data set [3] (saline vs TAT-inactive BH3), the “difference in arthritis (ankle circumference) versus saline” value is recorded as “no statistical difference”. In the data set on peripheral blood cells (hematology analyzer), the Platelets is given as 1305.75 ± 70.03 (1E6) and the RBCs is on record as 9.84 ± 0.22 (1E6). Besides, in the data set with peripheral blood cells, the “B-cells+” value is given as 2.38 ± 0.21 (1E6), the “CD4+ T-cells” value was 1.15 ± 0.10 (1E6), the “CD8+ T-cells” value is reported as 0.72 ± 0.06 (1E6) and the Inflammatory monocytes is reported as 0.25 ± 0.03 (1E6). Moreover, in the data set on peripheral blood cells, the N-K-cells is 0.19 ± 0.13 (1E6), the “Resident Monocytes” value was 0.14 ± 0.01 (1E6), the T-cells is reported as 1.94 ± 0.17 (1E6) and the “Total Leukocytes” value is 6.1 ± 0.18 (1E6). In data set [4], the liver histology entry is “no gross histologic abnormalities”. In data set [5], the IL-1β came out at 824 ± 103, the KC was found to be 428 ± 45, the MCP-1 is listed as 196 ± 17 and the MMP-3 is reported as 17 ± 4. Also, the TNFα in data set [5] was determined as 4.4 ± 0.3. Moreover, in the data set on IL-1β, TNFα, MCP-1, KC, the “circulating levels of IL-1β, TNFα, MCP-1, and KC in serum” value was “no differences”.
